Laboratory results: patent US10597380B2, “Pyridazinone-based broad spectrum anti-influenza inhibitors” (Hoffmann-La Roche Inc., priority 2017, dated 2020)

These molecules were tested on Influenza A/WSN/33-Luciferase virus (assay: microbe, parasite or virus in culture). Conditions: A549, 72 h, luciferase signal three days later, read-out: IC50 antiviral activity (Luciferase reporter assay).
Format: cell-based
`CNC(=O)COCCn1cccc(Nc2nn(-c3ccc(OC(F)(F)F)cc3)c(=O)c3ccccc23)c1=O` [Example 102, N-methyl-2-[2-[2-oxo-3-[[4-oxo-3-[4-(trifluoromethoxy)phenyl]phthalazin-1-yl]amino]-1-pyridyl]ethoxy]acetamide] showed an IC50 of 37 nM. In the case of `CN(C)C(=O)COCCn1cccc(Nc2nn(-c3ccc(OC(F)(F)F)cc3)c(=O)c3ccccc23)c1=O` [Example 103, N,N-dimethyl-2-[2-[2-oxo-3-[[4-oxo-3-[4-(trifluoromethoxy)phenyl]phthalazin-1-yl]amino]-1-pyridyl]ethoxy]acetamide], the IC50 is reported as 38 nM. `CNC(=O)Cn1cccc(Nc2nn(-c3ccc(OC(F)(F)F)cc3)c(=O)c3c2CCCC3)c1=O` [Example 104, N-methyl-2-[2-oxo-3-[[4-oxo-3-[4-(trifluoromethoxy)phenyl]-5,6,7,8-tetrahydrophthalazin-1-yl]amino]-1-pyridyl]acetamide] showed an IC50 of 39 nM. `CNC(=O)CCCn1cccc(Nc2nn(-c3ccc(OC(F)(F)F)cc3)c(=O)c3c2CCC3)c1=O` [Example 105, N-methyl-4-[2-oxo-3-[[4-oxo-3-[4-(trifluoromethoxy)phenyl]-6,7-dihydro-5H-cyclopenta[d]pyridazin-1-yl]amino]-1-pyridyl]butanamide] showed an IC50 of 15 nM. With `CN(C)C(=O)CCCn1cccc(Nc2nn(-c3ccc(OC(F)(F)F)cc3)c(=O)c3c2CCC3)c1=O` [Example 106, N,N-dimethyl-4-[2-oxo-3-[[4-oxo-3-[4-(trifluoromethoxy)phenyl]-6,7-dihydro-5H-cyclopenta[d]pyridazin-1-yl]amino]-1-pyridyl]butanamide] the IC50 was 14 nM. In the case of `CNC(=O)COCCn1cccc(Nc2nn(-c3ccc(OC(F)(F)F)cc3)c(=O)c3c2CCC3)c1=O` [Example 107, N-methyl-2-[2-[2-oxo-3-[[4-oxo-3-[4-(trifluoromethoxy)phenyl]-6,7-dihydro-5H-cyclopenta[d]pyridazin-1-yl]amino]-1-pyridyl]ethoxy]acetamide], the IC50 is reported as 49 nM. `CN(C)C(=O)COCCn1cccc(Nc2nn(-c3ccc(OC(F)(F)F)cc3)c(=O)c3c2CCC3)c1=O` [Example 108, N,N-dimethyl-2-[2-[2-oxo-3-[[4-oxo-3-[4-(trifluoromethoxy)phenyl]-6,7-dihydro-5H-cyclopenta[d]pyridazin-1-yl]amino]-1-pyridyl]ethoxy]acetamide] showed an IC50 of 29 nM. Work on `O=C(O)CCn1cccc(Nc2nn(-c3ccc(OC(F)(F)F)cc3)c(=O)c3ccccc23)c1=O` [Example 109, 3-[2-Oxo-3-[[4-oxo-3-[4-(trifluoromethoxy)phenyl]phthalazin-1-yl]amino]-1-pyridyl]propanoic acid] yielded an IC50 of 842 nM. `O=C(O)CCCn1cccc(Nc2nn(-c3ccc(OC(F)(F)F)cc3)c(=O)c3ccccc23)c1=O` [Example 110, 4-[2-oxo-3-[[4-oxo-3-[4-(trifluoromethoxy)phenyl]phthalazin-1-yl]amino]-1-pyridyl]butanoic acid] was tested, and the IC50 was 482 nM. In the case of `CC(C)(Cn1cccc(Nc2nn(-c3ccc(OC(F)(F)F)cc3)c(=O)c3ccccc23)c1=O)C(=O)O` [Example 111, 2,2-dimethyl-3-[2-oxo-3-[[4-oxo-3-[4-(trifluoromethoxy)phenyl]phthalazin-1-yl]amino]-1-pyridyl]propanoic acid], the IC50 is reported as 1510 nM. For `O=C(O)COCCn1cccc(Nc2nn(-c3ccc(OC(F)(F)F)cc3)c(=O)c3ccccc23)c1=O` [Example 112, 2-[2-[2-oxo-3-[[4-oxo-3-[4-(trifluoromethoxy)phenyl]phthalazin-1-yl]amino]-1-pyridyl]ethoxy]acetic acid], the IC50 was 2990 nM. `CN(CCn1cccc(Nc2nn(-c3ccc(OC(F)(F)F)cc3)c(=O)c3ccccc23)c1=O)CC(=O)O` [Example 113, 2-[methyl-[2-[2-oxo-3-[[4-oxo-3-[4-(trifluoromethoxy)phenyl]phthalazin-1-yl]amino]-1-pyridyl]ethyl]amino]acetic acid] was tested, and the IC50 was 161 nM. For `O=C(O)C1CCCN1CCn1cccc(Nc2nn(-c3ccc(OC(F)(F)F)cc3)c(=O)c3ccccc23)c1=O` (stereo not shown) [Example 114, 1-[2-[2-oxo-3-[[4-oxo-3-[4-(trifluoromethoxy)phenyl]phthalazin-1-yl]amino]-1-pyridyl]ethyl]pyrrolidine-2-carboxylic acid], the IC50 was 110 nM. `O=C(O)[C@@H]1CCCN1CCn1cccc(Nc2nn(-c3ccc(OC(F)(F)F)cc3)c(=O)c3ccccc23)c1=O` [Example 115, (2S)-1-[2-[2-oxo-3-[[4-oxo-3-[4-(trifluoromethoxy)phenyl]phthalazin-1-yl]amino]-1-pyridyl]ethyl]pyrrolidine-2-carboxylic acid] showed an IC50 of 180 nM. Work on `O=C(O)[C@H]1CCCN1CCn1cccc(Nc2nn(-c3ccc(OC(F)(F)F)cc3)c(=O)c3ccccc23)c1=O` [Example 116, (2R)-1-[2-[2-oxo-3-[[4-oxo-3-[4-(trifluoromethoxy)phenyl]phthalazin-1-yl]amino]-1-pyridyl]ethyl]pyrrolidine-2-carboxylic acid] yielded an IC50 of 261 nM. With `O=C(O)CCCn1cc(Cl)cc(Nc2nn(-c3ccc(OC(F)(F)F)cc3)c(=O)c3c2CCC3)c1=O` [Example 117, 4-[5-chloro-2-oxo-3-[[4-oxo-3-[4-(trifluoromethoxy)phenyl]-6,7-dihydro-5H-cyclopenta[d]pyridazin-1-yl]amino]-1-pyridyl]butanoic acid] the IC50 was 114 nM. In the case of `O=C(O)CCCn1cccc(Nc2nn(-c3ccc(OC(F)(F)F)cc3)c(=O)c3c2CCC3)c1=O` [Example 118, 4-[2-oxo-3-[[4-oxo-3-[4-(trifluoromethoxy)phenyl]-6,7-dihydro-5H-cyclopenta[d]pyridazin-1-yl]amino]-1-pyridyl]butanoic acid], the IC50 is reported as 953 nM. Molecule `O=C(O)COCCn1cccc(Nc2nn(-c3ccc(OC(F)(F)F)cc3)c(=O)c3c2CCC3)c1=O` [Example 119, 2-[2-[2-oxo-3-[[4-oxo-3-[4-(trifluoromethoxy)phenyl]-6,7-dihydro-5H-cyclopenta[d]pyridazin-1-yl]amino]-1-pyridyl]ethoxy]acetic acid] has an IC50 of 3760 nM. `O=C(O)C1CCN(CCn2cccc(Nc3nn(-c4ccc(OC(F)(F)F)cc4)c(=O)c4c3CCC4)c2=O)C1` (stereo not shown) [Example 120, 1-[2-[2-oxo-3-[[4-oxo-3-[4-(trifluoromethoxy)phenyl]-6,7-dihydro-5H-cyclopenta[d]pyridazin-1-yl]amino]-1-pyridyl]ethyl]pyrrolidine-3-carboxylic acid] showed an IC50 of 1120 nM. Work on `O=C(O)C1CCCN1CCn1cccc(Nc2nn(-c3ccc(OC(F)(F)F)cc3)c(=O)c3c2CCC3)c1=O` (stereo not shown) [Example 121, 1-[2-[2-oxo-3-[[4-oxo-3-[4-(trifluoromethoxy)phenyl]-6,7-dihydro-5H-1-yl]amino]-1-pyridyl]ethyl]pyrrolidine-2-carboxylic acid] yielded an IC50 of 156 nM. For `O=C(O)C1CN(CCn2cccc(Nc3nn(-c4ccc(OC(F)(F)F)cc4)c(=O)c4c3CCC4)c2=O)CCO1` (stereo not shown) [Example 122, 4-[2-[2-oxo-3-[[4-oxo-3-[4-(trifluoromethoxy)phenyl]-6,7-dihydro-5H-cyclopenta[d]pyridazin-1-yl]amino]-1-pyridyl]ethyl]morpholine-2-carboxylic acid], the IC50 was 3710 nM. With `O=C(O)C1COCCN1CCn1cccc(Nc2nn(-c3ccc(OC(F)(F)F)cc3)c(=O)c3c2CCC3)c1=O` (stereo not shown) [Example 123, 4-[2-[2-oxo-3-[[4-oxo-3-[4-(trifluoromethoxy)phenyl]-6,7-dihydro-5H-cyclopenta[d]pyridazin-1-yl]amino]-1-pyridyl]ethyl]morpholine-3-carboxylic acid] the IC50 was 485 nM. Work on `O=C(O)CCCn1cncc(Nc2nn(-c3ccc(OC(F)(F)F)cc3)c(=O)c3c2CCC3)c1=O` [Example 124, 4-[6-oxo-5-[[4-oxo-3-[4-(trifluoromethoxy)phenyl]-6,7-dihydro-5H-cyclopenta[d]pyridazin-1-yl]amino]pyrimidin-1-yl]butanoic acid] yielded an IC50 of 4930 nM. `Cn1cccc(Nc2nn(-c3ccc(OC(F)(F)F)cc3)c(=O)c3cc(O)ccc23)c1=O` [Example 125, 7-Hydroxy-4-[(1-methyl-2-oxo-3-pyridyl)amino]-2-[4-(trifluoromethoxy)phenyl]phthalazin-1-one] showed an IC50 of 88 nM. With `Cn1cccc(Nc2nn(-c3ccc(OC(F)(F)F)cc3)c(=O)c3ccc(O)cc23)c1=O` [Example 126, 6-Hydroxy-4-[(1-methyl-2-oxo-3-pyridyl)amino]-2-[4-(trifluoromethoxy)phenyl]phthalazin-1-one] the IC50 was 191 nM. Work on `O=c1c(Nc2nn(-c3ccc(OC(F)(F)F)cc3)c(=O)c3c2CCC3)cccn1CC1COCCN1` (stereo not shown) [Example 127, 1-[[1-(morpholin-3-ylmethyl)-2-oxo-3-pyridyl]amino]-3-[4-(trifluoromethoxy)phenyl]-6,7-dihydro-5H-cyclopenta[d]pyridazin-4-one] yielded an IC50 of 33 nM. Work on `CNCCn1cncc(Nc2nn(-c3ccc(OC(F)(F)F)cc3)c(=O)c3c2CCC3)c1=O` [Example 128, 1-[[1-[2-(Methylamino)ethyl]-6-oxo-pyrimidin-5-yl]amino]-3-[4-(trifluoromethoxy)phenyl]-6,7-dihydro-5H-cyclopenta[d]pyridazin-4-one] yielded an IC50 of 92 nM. `O=C(O)CNCCn1cccc(Nc2nn(-c3ccc(OC(F)(F)F)cc3)c(=O)c3c2CCC3)c1=O` [Example 129, 2-[2-[2-Oxo-3-[[4-oxo-3-[4-(trifluoromethoxy)phenyl]-6,7-dihydro-5H-cyclopenta[d]pyridazin-1-yl]amino]-1-pyridyl]ethylamino]acetic acid] gave an IC50 of 79 nM. For `NCCn1cccc(Nc2nn(-c3ccc(OC(F)(F)F)cc3)c(=O)c3c2CCC3)c1=O` [Example 130, 1-[[1-(2-Aminoethyl)-2-oxo-3-pyridyl]amino]-3-[4-(trifluoromethoxy)phenyl]-6,7-dihydro-5H-cyclopenta[d]pyridazin-4-one], the IC50 was 62 nM. Work on `O=c1c(Nc2nn(-c3ccc(OC(F)(F)F)cc3)c(=O)c3c2CCC3)cccn1CC1CCCN1` (stereo not shown) [Example 131, 1-[[2-Oxo-1-(pyrrolidin-2-ylmethyl)-3-pyridyl]amino]-3-[4-(trifluoromethoxy)phenyl]-6,7-dihydro-5H-cyclopenta[d]pyridazin-4-one] yielded an IC50 of 30 nM. `CN1CCc2c(Nc3cccn(C)c3=O)nn(-c3ccc(OC(F)(F)F)cc3)c(=O)c2C1` [Example 132, 6-Methyl-1-[(1-methyl-2-oxo-3-pyridyl)amino]-3-[4-(trifluoromethoxy)phenyl]-7,8-dihydro-5H-pyrido[3,4-d]pyridazin-4-one] showed an IC50 of 87 nM.
